These results are taken from patent US20080176857A1, “4-Piperazinnylthieno[2,3-d]Pyrimidine Compounds as Platelet Aggregation Inhibitors” (priority 2005, published 2008).

SMILES strings stand for the structures. Where “and” joins values, the source holds several entries; their conditions need not be identical. Equal values may be shown once.

This assay concerns the target P2Y12 receptor (Homo sapiens, UniProt Q9H244). Briefly: [33P]-2MeS-ADP binding to recombinant human P2Y12 membranes (Assay 3). The note with it: for IC50 / Ki: HEK cell membranes expressing human P2Y12, competition with 33P 2MeS-ADP; for inhibition at 10 µM / % Inhibition: 10 μM. Also noted: expressed in transfected cells; host or cells: HEK cells. The essentials:
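Membranes from HEK cells transfected with human P2Y12, used in competitive binding against [33P]-2MeS-ADP in Tris/NaCl/EDTA buffer with 0.02% BSA. Seven-point 3-fold dilutions from 10 μM final, 1 h at room temperature, then filtration and scintillation counting. IC50 from four-parameter fit with Hill slope fixed at one, plate controls defining min/max.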

[1] abbreviates: at highest concentration tested.

Chain of P2Y12 receptor (Q9H244 whole entry): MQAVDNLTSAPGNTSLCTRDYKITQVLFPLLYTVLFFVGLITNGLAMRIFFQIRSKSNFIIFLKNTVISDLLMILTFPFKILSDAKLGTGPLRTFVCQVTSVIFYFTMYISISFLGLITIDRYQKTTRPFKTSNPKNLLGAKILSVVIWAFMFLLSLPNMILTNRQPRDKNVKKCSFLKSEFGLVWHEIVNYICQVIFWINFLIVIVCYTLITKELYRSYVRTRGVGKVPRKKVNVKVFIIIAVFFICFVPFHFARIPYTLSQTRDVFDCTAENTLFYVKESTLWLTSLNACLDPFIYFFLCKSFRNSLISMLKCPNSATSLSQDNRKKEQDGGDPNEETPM

On to `CCc1cc2c(N3CCN(C(=O)c4nnc(-c5ccccc5)o4)CC3)nc(SCC(=O)OC)nc2s1` [Example 70, Methyl [(6-ethyl-4-{4-[(5-phenyl-1,3,4-oxadiazol-2-yl)carbonyl]piperazin-1-yl}thieno[2,3-d]pyrimidin-2-yl)thio]acetate], for which the IC50 (in general, the concentration needed to halve the response being measured) is 0.144 µM; the Ki (as a rule, the dissociation constant of the complex between target and ligand, obtained from inhibition or displacement) came to 0.089 µM. Besides, the inhibition (usually the drop in the measured response relative to a control, in per cent) at 10 µM under setting [1] was 82.1%.
The matching figures for `CCCOc1ccc(C(=O)N2CCN(c3nc(SCC(=O)OC)nc4sc(CC)cc34)CC2)cc1` [Example 71, Methyl ({6-ethyl-4-[4-(4-propoxybenzoyl)piperazin-1-yl]thieno[2,3-d]pyrimidin-2-yl}thio)acetate]: 0.289 µM, 0.179 µM and 89.3%.
The matching figures for `CCc1cc2c(N3CCN(C(=O)c4cc(N(C)C)nc(N(C)C)n4)CC3)nc(SCC(=O)OC)nc2s1` [Example 72, Methyl {[4-(4-{[2,6-bis(dimethylamino)pyrimidin-4-yl]carbonyl}piperazin-1-yl)-6-ethylthieno[2,3-d]pyrimidin-2-yl]thio}acetate]: 0.681 µM, 0.423 µM and 88.7%.
The matching figures for `CCCCOc1ccc(C(=O)N2CCN(c3nc(SCC(=O)OC)nc4sc(CC)cc34)CC2)cc1` [Example 73, Methyl ({4-[4-(4-butoxybenzoyl)piperazin-1-yl]-6-ethylthieno[2,3-d]pyrimidin-2-yl}thio)acetate]: 0.371 µM, 0.23 µM and 82%.
Take `CCc1cc2c(N3CCN(C(=O)c4cccc(N(C)C)c4)CC3)nc(SCC(=O)OC)nc2s1` [Example 74, Methyl [(4-{4-[3-(dimethylamino)benzoyl]piperazin-1-yl}-6-ethylthieno[2,3-d]pyrimidin-2-yl)thio]acetate]: the IC50 is 5.74 µM and the Ki stood at 3.69 µM. Moreover, the inhibition at 10 µM under setting [1] is 59%.
In the case of `CCc1cc2c(N3CCN(C(=O)c4cccc(OC)c4)CC3)nc(SCC(=O)OC)nc2s1` [Example 75, Methyl ({6-ethyl-4-[4-(3-methoxybenzoyl)piperazin-1-yl]thieno[2,3-d]pyrimidin-2-yl}thio)acetate], the IC50 turned out to be 3.5 µM and the Ki stood at 2.25 µM. Also, under setting [1], the inhibition at 10 µM stood at 70.5%.
For `CCOc1cccc(C(=O)N2CCN(c3nc(SCC(=O)OC)nc4sc(CC)cc34)CC2)c1` [Example 76, Methyl ({4-[4-(3-ethoxybenzoyl)piperazin-1-yl]-6-ethylthieno[2,3-d]pyrimidin-2-yl}thio)acetate], the IC50 turned out to be 1.17 µM and the Ki turned out to be 0.73 µM. Further, under setting [1], the inhibition at 10 µM turned out to be 75.9%.
The like results for `CCc1cc2c(N3CCN(C(=O)c4ccc5nccnc5c4)CC3)nc(SCC(=O)OC)nc2s1` [Example 77, Methyl ({6-ethyl-4-[4-(quinoxalin-6-ylcarbonyl)piperazin-1-yl]thieno[2,3-d]pyrimidin-2-yl}thio)acetate] were, in that order, 4.85 µM, 2.81 µM and 63.4%.
Turning to `CCc1cc2c(N3CCN(C(=O)c4cccc(-c5ccccc5)c4)CC3)nc(SCC(=O)OC)nc2s1` [Example 78, Methyl ({4-[4-(1,1′-biphenyl-3-ylcarbonyl)piperazin-1-yl]-6-ethylthieno[2,3-d]pyrimidin-2-yl}thio)acetate], the IC50 is 0.035 µM and 0.02 µM and 0.069 µM; the Ki is 0.02 µM and 0.01 µM and 0.04 µM. Moreover, the inhibition at 1 µM (at highest concentration tested, 1 μM) was 94%. In addition, under setting [1], the % Inhibition (usually the percentage by which the read-out fell short of the control) amounted to 87.73% and the inhibition at 10 µM worked out at 92.6%.
Turning to `CCc1cc2c(N3CCN(C(=O)c4ccc(C(N)=O)cc4)CC3)nc(SCC(=O)OC)nc2s1` [Example 79, Methyl [(4-{4-[4-(aminocarbonyl)benzoyl]piperazin-1-yl}-6-ethylthieno[2,3-d]pyrimidin-2-yl)thio]acetate], the IC50 was 8.7 µM and the Ki was 5.05 µM. The inhibition at 10 µM under setting [1] came to 47.7%.
The like results for `CCc1cc2c(N3CCN(C(=O)c4ccc(C(=O)OC)cc4)CC3)nc(SCC(=O)OC)nc2s1` [Example 80, Methyl 4-[(4-{6-ethyl-2-[(2-methoxy-2-oxoethyl)thio]thieno[2,3-d]pyrimidin-4-yl}piperazin-1-yl)carbonyl]benzoate] were, in that order, 3.78 µM, 2.45 µM and 60%.
The like results for `CCc1cc2c(N3CCN(C(=O)c4csc(-c5cccnc5)n4)CC3)nc(SCC(=O)OC)nc2s1` [Example 81, Methyl [(6-ethyl-4-{4-[(2-pyridin-3-yl-1,3-thiazol-4-yl)carbonyl]piperazin-1-yl}thieno[2,3-d]pyrimidin-2-yl)thio]acetate] were, in that order, 1.72 µM, 1.07 µM and 76.7%.
For `CCc1cc2c(N3CCN(C(=O)Cc4ccccc4)CC3)nc(SCCC(=O)OC)nc2s1` [Example 82, methyl 3-({6-ethyl-4-[4-(phenylacetyl)piperazin-1-yl]thieno[2,3-d]pyrimidin-2-yl}thio)propanoate], the IC50 was 0.39 µM and 1.17 µM and 0.22 µM and 0.27 µM and 0.4 µM; the Ki is 0.212 µM and 0.667 µM and 0.12 µM and 0.15 µM and 0.23 µM. Moreover, under setting [1], the “% Inhibition” value is 86.00% and 93.95% and 94.10% and 89.55%; the inhibition at 10 µM came out at 92.7%.
For `CCc1cc2c(N3CCN(C(=O)Cc4ccccc4)CC3)nc(SCC(=O)O)nc2s1` [Example 83, ({6-ethyl-4-[4-(phenylacetyl)piperazin-1-yl]thieno[2,3-d]pyrimidin-2-yl}thio)acetic acid], the IC50 is 0.23 µM and 0.94 µM and 0.43 µM and 0.47 µM; the Ki was 0.127 µM and 0.54 µM and 0.24 µM and 0.27 µM. Under setting [1], the “% Inhibition” value was 90.75% and 91.85% and 86.17%; the inhibition at 10 µM was 92%.
Consider `CCc1cc2c(N3CCN(C(=O)Cc4ccccc4)CC3)nc(SCCCCO)nc2s1` [Example 84, 4-({6-ethyl-4-[4-(phenylacetyl)piperazin-1-yl]thieno[2,3-d]pyrimidin-2-yl}thio)butan-1-ol], for which the IC50 is 0.58 µM and 1.44 µM and 0.22 µM and 0.27 µM and 0.52 µM; the Ki is 0.315 µM and 0.825 µM and 0.13 µM and 0.15 µM and 0.3 µM. Besides, under setting [1], the “% Inhibition” value was 90.62% and 71.83% and 92.13% and 94.46% and 90.58%.
Take `CCc1cc2c(N3CCN(C(=O)Cc4ccccc4)CC3)nc(SCCO)nc2s1` [Example 87, 2-({6-ethyl-4-[4-(phenylacetyl)piperazin-1-yl]thieno[2,3-d]pyrimidin-2-yl}thio)ethanol]: the IC50 is 0.57 µM and 0.59 µM and 0.2 µM and 0.32 µM; the Ki was 0.31 µM and 0.337 µM and 0.11 µM and 0.18 µM.
For the compound `CCc1cc2c(N3CCN(C(=O)Cc4ccccc4)CC3)nc(SCCN(C)C)nc2s1` [Example 88, N-[2-({6-ethyl-4-[4-(phenylacetyl)piperazin-1-yl]thieno[2,3-d]pyrimidin-2-yl}thio)ethyl]-N,N-dimethylamine], the IC50 is 1.68 µM and 1.48 µM and 0.64 µM and 0.37 µM and 1.2 µM; the Ki was 0.913 µM and 0.848 µM and 0.37 µM and 0.21 µM and 0.7 µM. Moreover, under setting [1], the “% Inhibition” value is 80.30% and 84.54% and 89.14% and 82.41%; the inhibition at 10 µM was 94.1%.
